This note sets out measurements from publication PMC7226860 (ACS Omega, 2020).

The structures appear in SMILES notation. In brackets after ≈: the same amount, converted by molar mass.

Assay [1] deals with S. mutans (ATCC: 25175). Put plainly: MIC, twofold serial dilution. To be noted: Streptococcus mutans, 24 h. It is filed as cell-based.
For assay [2], the system named is S. aureus (ATCC: 6538). Put plainly: MIC, twofold serial dilution. As to conditions: Staphylococcus aureus, 24 h. Type of assay: cell-based.
For assay [3], the system named is HFB4 human dermal fibroblast cell line. As to the kind of experiment: MTT cytotoxicity assay. It is filed as cell-based. As to conditions: 48 h. In general terms: Formazan colour is commonly taken as a measure of viable cells.
In assay [4] the test system is S. aureus (ATCC: 6538). Put plainly: Agar well diffusion, inhibition zone. It is filed as cell-based, Staphylococcus aureus. To be noted: for zone of inhibition at 15000 µg/mL: Staphylococcus aureus, read-out: diameter of the inhibition zone. A general note: In agar diffusion tests the substance spreads into inoculated agar from a disc or well.
For assay [5], the system named is S. mutans (ATCC: 25175). As to the kind of experiment: Agar well diffusion, inhibition zone. Type of assay: cell-based, Streptococcus mutans. As to conditions: Streptococcus mutans, read-out: diameter of the inhibition zone.
The test system of assay [6] is K. pneumonia (ATCC: 4415). Put plainly: MIC, twofold serial dilution. It is filed as cell-based. To be noted: Klebsiella pneumoniae, 24 h, read after 24 h.
The test system of assay [7] is E. coli (ATCC: 3008). Put plainly: MIC, twofold serial dilution. It is filed as cell-based. To be noted: Escherichia coli, 24 h.
The test system of assay [8] is K. pneumonia (ATCC: 4415). As to the kind of experiment: Agar well diffusion, inhibition zone. Type of assay: cell-based, Klebsiella pneumonia. To be noted: Klebsiella pneumoniae, read-out: diameter of the inhibition zone, K. pneumonia (ATCC: 4415), Gram (−ve), 15 mg/mL, mean ± SD.
The test system of assay [9] is E. coli (ATCC: 3008). Put plainly: Agar well diffusion, inhibition zone. It is filed as cell-based, Escherichia coli. As to conditions: Escherichia coli, read-out: diameter of the inhibition zone.
The subject of assay [10] is P. aeruginosa (ATCC: 27853). Put plainly: MIC, twofold serial dilution. It is filed as cell-based. As to conditions: Pseudomonas aeruginosa, 24 h.
Assay [11] relates to P. aeruginosa (ATCC: 27853). As to the kind of experiment: Agar well diffusion, inhibition zone. As to conditions: for zone of inhibition at 15000 µg/mL: Pseudomonas aeruginosa, read-out: diameter of the inhibition zone; for diameter of the inhibition zone: P. aeruginosa (ATCC: 27853), Gram (−ve), agar well diffusion, 15 mg/mL, mean ± SD. Type of assay: cell-based, Pseudomonas aeruginosa.

The subject of assay [12] is C. albicans (ATCC: 10231). Put plainly: Agar well diffusion, inhibition zone. Type of assay: cell-based, Candida albicans. To be noted: for diameter of the inhibition zone: C. albicans (ATCC: 10231), fungi, 15 mg/mL, mean ± SD; for zone of inhibition at 15000 µg/mL: Candida albicans, read-out: diameter of the inhibition zone, C. albicans (ATCC: 10231), fungi, 15 mg/mL, mean ± SD.

Another assay has as its target T1, human DHFR (Homo sapiens, UniProt P00374).
T1 sequence (P00374 1-187): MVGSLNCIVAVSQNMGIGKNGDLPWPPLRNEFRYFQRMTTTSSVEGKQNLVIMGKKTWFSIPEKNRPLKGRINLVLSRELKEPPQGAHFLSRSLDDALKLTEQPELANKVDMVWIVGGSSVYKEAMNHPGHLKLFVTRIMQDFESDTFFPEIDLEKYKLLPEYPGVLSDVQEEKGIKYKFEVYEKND
Put plainly: DHFR inhibitor screening kit. Type of assay: biochemical. To be noted: for inhibition at 0.01 µg/mL / inhibition at 0.1 µg/mL / inhibition at 1 µg/mL / inhibition at 10 µg/mL: read-out: Inhibition of DHFR enzyme.

Assay [13] concerns C. albicans (ATCC: 10231). Put plainly: MIC, twofold serial dilution. Type of assay: cell-based, Candida albicans. To be noted: Candida albicans, 24 h.

For orientation: MIC means the least concentration at which growth counts as inhibited. A word on the IC50: it is the concentration at which inhibition is half-maximal. Turning to `Nc1ccc(S(=O)(=O)Nc2ncccn2)cc1` [SD, sulfadiazine, reference compound], the minimum inhibitory concentration (MIC) against S. mutans (ATCC: 25175) [1] is 125 µg/mL (≈ 499 µM); in the assay with S. aureus (ATCC: 6538) [2], 500 µg/mL (≈ 2000 µM); in [6] it was 250 µg/mL (≈ 999 µM); in the assay with E. coli (ATCC: 3008) [7] it was 250 µg/mL (≈ 999 µM); in assay [10], 250 µg/mL (≈ 999 µM). The same compound registered an IC50 in [3] of 243 ± 46.1 µg/mL (≈ 969 µM). Besides, the zone of inhibition at 15000 µg/mL amounted to 31.2 ± 2.1 mm in the assay on S. aureus (ATCC: 6538) [4]; 16.3 ± 1.1 mm in the assay on S. mutans (ATCC: 25175) [5]; 20.4 ± 0.9 mm in assay [8]; 19.8 ± 0.4 mm in the assay with E. coli (ATCC: 3008) [9]; 24 ± 1.4 mm in assay [11]. Also, in assay [12], the “diameter of the inhibition zone” value was “no activity”.
By inhibition is commonly meant the percentage by which the read-out fell short of the control. For `Nc1n[nH]c2c(-c3nc4ccccc4s3)c(=O)n(NS(=O)(=O)c3ccccc3)c(N)c12` [compound 11a, N-(3,4-Diamino-7-(benzo[d]thiazol-2-yl)-6-oxo-1H-pyrazolo[4,3-c]pyridin-5(6H)-yl)benzenesulfonamide], the IC50 against human DHFR is 441 nM; in assay [3], 234 ± 20.7 µg/mL (≈ 515 µM). The inhibition at 0.01 µg/mL on human DHFR is 29.6%. On human DHFR, the inhibition at 0.1 µg/mL was 44.1%. In addition, at human DHFR, the inhibition at 1 µg/mL worked out at 67%. Moreover, at human DHFR, the inhibition at 10 µg/mL is 71.8%. Also, the MIC against S. mutans (ATCC: 25175) [1] amounted to 1000 µg/mL (≈ 2210 µM); against S. aureus (ATCC: 6538) [2] it was 31.2 µg/mL (≈ 68.9 µM); in assay [6], 125 µg/mL (≈ 276 µM); with E. coli (ATCC: 3008) [7], 31.2 µg/mL (≈ 68.9 µM); in [13], 125 µg/mL (≈ 276 µM). In addition, the zone of inhibition at 15000 µg/mL in the assay on S. aureus (ATCC: 6538) [4] was 35.2 ± 1.5 mm; with S. mutans (ATCC: 25175) [5], 22.3 ± 0.5 mm; in assay [8], 15.2 ± 0.5 mm; in the assay on E. coli (ATCC: 3008) [9], 26 ± 0.5 mm; in [12], 21 to 28 mm. Further, the “diameter of the inhibition zone” value in [11] is on record as “−”; in assay [12] it was 21.0 ± 1.7 mm.
For the compound `CSc1c(C#N)c(N)n(NS(=O)(=O)c2ccc(C)cc2)c(=O)c1-c1nc2ccccc2s1` [compound 5b, N-(6-Amino-3-(benzo[d]thiazol-2-yl)-5-cyano-4-(methylthio)-2-oxopyridin-1(2H)-yl)-4-methylbenzenesulfonamide], the values for the IC50 (at human DHFR; in assay [3]) were 620 nM and 146 ± 27 µg/mL (≈ 301 µM), respectively. On human DHFR, the inhibition at 0.01 µg/mL amounted to 19.8%. Besides, on human DHFR, the inhibition at 0.1 µg/mL was found to be 37.4%. For the same compound, the inhibition at 1 µg/mL at human DHFR was 65%. On human DHFR, the inhibition at 10 µg/mL came out at 79.4%. The MIC in the assay on S. mutans (ATCC: 25175) [1] worked out at 1000 µg/mL (≈ 2070 µM); against S. aureus (ATCC: 6538) [2], 250 µg/mL (≈ 517 µM); in [6], 1000 µg/mL (≈ 2070 µM); against E. coli (ATCC: 3008) [7], 125 µg/mL (≈ 258 µM); in assay [10], 1000 µg/mL (≈ 2070 µM). In addition, the zone of inhibition at 15000 µg/mL in the assay with S. aureus (ATCC: 6538) [4] turned out to be 30.3 ± 0.5 mm; with S. mutans (ATCC: 25175) [5], 18.6 ± 1 mm; in [8] it was 25.6 ± 1.1 mm; in the assay on E. coli (ATCC: 3008) [9], 21.3 ± 3 mm; in [11], 23.3 ± 0.5 mm. Also, in [12], the “diameter of the inhibition zone” value is “−”.
Regarding `CSc1c(C#N)c(N)n(NS(=O)(=O)c2ccccc2)c(=O)c1-c1nc2ccccc2s1` [compound 5a, N-(6-Amino-3-(benzo[d]thiazol-2-yl)-5-cyano-4-(methylthio)-2-oxopyridin-1(2H)-yl)benzenesulfonamide], the half-inhibitory concentration (IC50) against human DHFR was 554 nM; in assay [3], 167 ± 21.8 µg/mL (≈ 356 µM). Also, the inhibition at 0.01 µg/mL on human DHFR amounted to 30%. Also, the inhibition at 0.1 µg/mL at human DHFR was 41.8%. Moreover, at human DHFR, the inhibition at 1 µg/mL is 57.3%. Besides, on human DHFR, the inhibition at 10 µg/mL worked out at 75.9%. Moreover, the minimum inhibitory concentration (MIC) in the assay on S. mutans (ATCC: 25175) [1] came to 1000 µg/mL (≈ 2130 µM); in assay [6], 1000 µg/mL (≈ 2130 µM); with E. coli (ATCC: 3008) [7], 62.5 µg/mL (≈ 133 µM); in [13], 62.5 µg/mL (≈ 133 µM). Also, the “diameter of the inhibition zone” value was “−” in the assay with S. aureus (ATCC: 6538) [4] (S. aureus (ATCC: 6538), Gram (+ve), agar well diffusion, 15 mg/mL, mean ± SD); “−” in assay [11]; 21.0 ± 1.0 mm in assay [12]. For the same compound, the zone of inhibition at 15000 µg/mL in the assay on S. mutans (ATCC: 25175) [5] is 17.6 ± 1.5 mm; in assay [8], 20.6 ± 1 mm; in the assay on E. coli (ATCC: 3008) [9], 26 ± 0.5 mm; in [12], 21 to 28 mm.
For `CNC(C)C1CCC(N)C(OC2C(N)CC(N)C(OC3OCC(C)(O)C(NC)C3O)C2O)O1` (stereo not shown) [Gentamicin, reference compound], the results for the MIC (in assay [6]; in the assay on E. coli (ATCC: 3008) [7]; in [10]) were 62.5 µg/mL (≈ 131 µM), 31.2 µg/mL (≈ 65.4 µM) and 125 µg/mL (≈ 262 µM), respectively. The zone of inhibition at 15000 µg/mL in assay [8] is 32 ± 0.1 mm; in the assay on E. coli (ATCC: 3008) [9], 25 ± 0.1 mm; in [11], 35 ± 0.1 mm.
